Experimental data from patent EP1940519B1, “Pharmaceutical composition comprising artesunate, sulfamethoxypyrazine and pyrimethamine for use in the treatment of malaria within one day” (Dafra Pharma N.V., priority 2005, dated 2007).

What was measured:
[1] = tested on: uncomplicated falciparum malaria; settings: area of multi-drug resistance, Thai-Burmese border; cited from earlier work
[2] = fatty meal (approximately 30 g of fat) versus low-fat meal; with artesunate 8 mg/kg and mefloquine 15 mg/kg over 12h; cited from earlier work
[3] = tested on: Plasmodium falciparum malaria; settings: India; number among the 89 subjects who completed the study; cited from earlier work
[4] = in vivo
Description: Treatment safety was assessed clinically as well as by measuring hematological indices and serum creatinine and hepatic transaminase concentrations. The sample size was computed assuming equal efficacy of the two treatments, and 606 patients (303 in each treatment arm) were enrolled over two consecutive malaria transmission seasons.

Question: Which “Overall failure rates by day 28” value [1] does the source give for `OC(c1cc(C(F)(F)F)nc2c(C(F)(F)F)cccc12)C1CCCCN1` (stereo not shown) [MQ, mefloquine] here?
Answer: The value was 24%.

Question: What about the bioavailability of mefloquine [2] of the same compound?
Answer: Its bioavailability of mefloquine is “does not appear to increase the bioavailability”.

Question: Which treatment failures [3] does the source give for `CCN(CC)CCCC(C)Nc1ccnc2cc(Cl)ccc12` (stereo not shown) [chloroquine] here?
Answer: The treatment failures was 46.

Question: Which “mild and transient elevation of transaminases” value [4] does the source give for artemether-lumefantrine here?
Answer: The value was 0/72.
